The record followed here is US10004253B1, “Method for increasing the health condition of crustaceans in aquaculture, survival rate and pigmentation” (priority 2017, dated 2018).

In one assay the test system is white shrimp L. vannamei. The assay is described as follows: Different sources and doses of carotenoids in balanced feed, 60 day treatment, Example 6. Format: in vivo. As to conditions: 75 ppm in feed. From the text: 6. —Effects of different sources and doses of carotenoids in the balanced feed, growout, survival, and deposition of pigments in white shrimp L. vannamei. The following is a review of the results obtained regarding the dosing of Lutein/Zeaxanthin Long Chain Diesters in the feed, as compared to feed that contained synthetic Astaxanthin (Carophyll Pink). The average survival and final weight results of the experimental work with shrimp L. vannamei results, obtained after a 60 day treatment, are shown in Table V: […]

For a further assay, the system named is P. monodon shrimp. Nature of the assay: Total pigment and Astaxanthin enantiomers deposited, commercial ponds, Example 7. As to conditions: feed with 60 ppm, sampled at three grams weight, lyophilized. The class given is in vivo. The method, then:
The concentration of total pigment in crustacean specimens extract was carried out by UV/VIS spectrophotometric methods measurement absorbance at 470 nm (A 1%=2100 in Hexane).
The Astaxanthin enantiometers deposited by the crustaceans specimens, or from its different organs, were quantified by HPLC after derivatization into the corresponding dicamphanates (Vecchi and Muller 1979).
7. —Comparison of the different Astaxanthin enantiomers deposited by P. monodon that were given the following three different diets: commercial feed as control; commercial feed containing 120 ppm of Lutein or Zeaxanthin Long Chain Diesters Concentrate; and commercial feed that contained 60 ppm of synthetic Astaxanthin (Carophyll Pink). […]
At three grams weight, the ponds were sampled, the specimens were lyophillized and the dehydrated samples were ground and analyzed.
The concentration of total pigment in the crustacean specimens extract was carried out by UV/Vis spectrophotometric methods measurement absorbance at 470 nm (A 1%=2100 in hexane).
The analysis of Astaxanthin R/S enantiomers deposited by the crustacean specimens, were quantified by HPLC after derivatization into the corresponding dicamphanates (Vecchi and Muller 1979), in order to differentiate the Astaxanthin enantiomers.

Take `CC1=C(/C=C/C(C)=C/C=C/C(C)=C/C=C/C=C(C)/C=C/C=C(C)/C=C/C2=C(C)C(=O)[C@@H](O)CC2(C)C)C(C)(C)C[C@H](O)C1=O` [ROCHE Astaxanthin, Astaxanthin]: in the assay with white shrimp L. vannamei, the “FINAL WEIGHT grs” value is 7.77 grs and the SURVIVAL % was found to be 63.33%. Also, in the assay on white shrimp L. vannamei (HPLC), the “ASTAX. IN HEAD (hepathopanchreas)” value is listed as 29.2 micrograms of Astaxanthin per gram of tissue, the “ASTAX. IN MUSCLE” value is given as 11.4 micrograms of Astaxanthin per gram of tissue and the “ASTAX. IN SHELL (carapace)” value is recorded as 75.1 micrograms of Astaxanthin per gram of tissue. Further, the “Concentration of total pigment in specimens extract (UV/Vis 470 nm)” value with P. monodon shrimp is reported as 152.5 ppm.
